Source: patent US7351690B2, “Knockout identification of target-specific sites in peptides” (priority 2000, dated 2008)
Square brackets hold non-standard residues; d marks the D form. Primed or numbered codes have the meaning given here. Ends that are not written are not given here. pGlu = O=C1CC[C@@H](C(=O)O)N1; Nle = CCCC[C@H](N)C(=O)O; dH′ = not defined here

Test system: bombesin receptor
Experiment: competitive binding assay, 125I-Bombesin, rat brain membranes
Conditions: for % Inhibition: inhibition of 0.01 nM 125I-Bombesin binding, rat brain membranes, test concentration not given
Protocol: Rat brain membranes were utilized as the source of bombesin receptor. The competitive binding assay was performed using a procedure as described by Moody T W, Perk C B, Rivier J, Brown, M R. (Proc Natl Acad Sci USA. 75:5372-5376, […]) and adapted to a 96 well format. An aliquot of membranes taken in assay buffer (50 mM Tris and HCl, pH 7.4 containing 1 mg/mL BSA and 2 μg/mL bacitracin) was incubated with 0.01 nM of ^125I-Bombesin with or without varying concentrations of the test compound for 60 min at 4° C. The incubation was terminated by rapid filtration of the assay mixture, followed by washing the filters with ice-cold buffer. The filters were dried and counted in a gamma counter for retained radioactivity. Non-specific binding was measured by including 1 μM Bombesin in the assay tube. The assay was performed in triplicate and results calculated to determine percentage inhibition of the ^125I-Bombesin binding to its receptors by a test compound. The parent polypeptide is shown in Table 6, with metallopeptides having Cys inserted as shown.

## Gln-Trp-Ala-Val-Cys-NH2 (QWAVC-NH2; not fully specified (bridges); printed as Gln-Trp-Ala-Val-Cys-NH2; also: oxorhenium(V) N3S1 chelate (Re(V)=O)) [11-13]
  binding to bombesin receptor, in words: high negative percent inhibition
  % Inhibition: −50%

## Pyr-Gln-Arg-Leu-Gly-Asn-Gln-Cys-Ala-Val-Gly-His-Leu-Nle-NH2 (QRLGNQCAVGHL; N-term pyroglutamate; Nle-NH2; rhenium complex; printed: Gln-Arg-Leu-Gly-Asn-Gln-Cys-Ala-Val-Gly-His-Leu-) [7-7]
  binding to bombesin receptor, in words: Complete inactivity
  % Inhibition: −2%

## D-Phe-Gln-D-Trp-Ala-Val-Cys-His-Leu-Leu-NH2 ([dF]Q[dW]AVCHLL-NH2; numbers in words are those of the source; also: oxorhenium(V) N3S1 tetradentate complex via Cys) [10-5]
  % Inhibition: 6%

## Pyr-Gln-Arg-Leu-Gly-Asn-Gln-Trp-Ala-Val-Gly-Cys-His-Leu-Nle-NH2 ([pGlu]QRLGNQWAVGCHL[Nle]-NH2; numbers in words are those of the source; also: oxorhenium(V) N3S1 chelate (Re=O) with Cys) [6-4]
  % Inhibition: 70%

## D-Phe-Gln-Trp-Ala-Val-Cys-D-His-Leu-Leu-NH2 ([dF]QWAVC[dH′]LL-NH2; also: oxorhenium(V) N3S1 chelate via Cys (Re(V)=O)) [10-1]
  % Inhibition: 10%

## D-Phe-Gln-Cys-Ala-Val-Gly-His-Leu-Leu-NH2 ([dF]QCAVGHLL-NH2; also: oxorhenium(V) N3S1 tetradentate complex via Cys) [9-7]
  binding to bombesin receptor, in words: least activity
  % Inhibition: 19%

## Pyr-Gln-Arg-Leu-Gly-Asn-Gln-Trp-Cys-Ala-Val-Gly-His-Leu-Nle-NH2 ([pGlu]QRLGNQWCAVGHL[Nle]-NH2; numbers in words are those of the source; also: rhenium complex (oxorhenium(V) N3S1 tetradentate chelate via Re=O core)) [6-7]
  % Inhibition: 62%

## Pyr-Gln-Arg-Leu-Gly-Cys-Gln-Trp-Ala-Val-Gly-His-Leu-Nle-NH2 (QRLGCQWAVGHL; N-term pyroglutamate; Nle-NH2; rhenium complex; printed: Gln-Arg-Leu-Gly-Cys-Gln-Trp-Ala-Val-Gly-His-Leu-) [7-9]
  % Inhibition: 93%

## Gln-Trp-Ala-Val-Cys-His-Leu-Leu-NH2 [11-4] (QWAVCHLL-NH2; not fully specified (bridges); printed as Gln-Trp-Ala-Val-Cys-His-Leu-Leu-NH2; also: oxorhenium(V) N3S1 chelate (Re(V)=O))
  % Inhibition: 25%

## D-Phe-Gln-Trp-Cys-Val-His-Leu-Leu-NH2 ([dF]QWCVHLL-NH2; not fully specified (bridges); printed as D-Phe-Gln-Trp-Cys-Val-His-Leu-Leu-NH2; also: oxorhenium(V) N3S1 chelate complex (Re=O)) [12-6]
  % Inhibition: 10%

## D-Phe-Gln-Trp-Ala-Val-Gly-His-Cys-Leu-NH2 ([dF]QWAVGHCL-NH2; also: rhenium complex (oxorhenium(V) N3S1 chelate via Cys)) [9-2]
  % Inhibition: 35%

## D-Phe-Gln-Trp-Ala-Val-Cys-Gly-His-Leu-Leu-NH2 ([dF]QWAVCGHLL-NH2; also: oxorhenium(V) N3S1 chelate via Cys (Re(V)=O)) [8-5]
  % Inhibition: 70%

## D-Phe-Gln-Trp-Ala-Val-Cys-His-Leu-NH2 ([dF]QWAVCHL-NH2; also: oxorhenium(V) N3S1 chelate via Cys (Re(V)=O)) [11-1]
  % Inhibition: 98%
